Marks after values point to notes of the source that are not given here.
System: humoral immunity in rats (splenocytes producing anti-sheep erythrocyte antibodies)
Experiment: Direct haemolytic plaque (plaque-forming cells, PFC) test after immunisation with sheep erythrocytes
Assay type: in vivo, male Wistar rats
Settings: rat; for % inhibition: haemolytic plaques (PFC)
Experimental: The immunosuppressive activity was evaluated by studying the humoral immunity in rats through the quantification of direct haemolytic plaques (“plaque-forming cells”—PFC) after immunisation with sheep erythrocytes.
This technique consists in stimulating the immune system with an anti-genic agent, the sheep erythrocytes, and in evaluating the effect of a substance on the immune response. This immune response is evaluated by measuring the proportion of splenocytes that produce anti-sheep erythrocyte antibodies in the presence of a complement (Jerne N. K., 1974).
The effect of the compounds, in suspension in methylcellulose hydrogel (Sigma ref: M0512), on the immune system was evaluated in male Wistar rats after oral administration for 5 and 7 days (5 days before sensitisation and 2 days after). The administration volume was 10 ml/kg.
10 rats were used in each group, each group corresponding to a dose of a compound, plus a control group (blank) and a positive control group (reference substance). The reference substance used was cyclophosphamide (monohydrate) from Sigma (ref: C0768) at a dose of 20 mg/kg administrated subcutaneously at a rate of 1 ml/kg, only administrated on the fifth day. During the four previous days, the animals were treated with the compound vehicle (methylcellulose).
On the fifth day, one hour after treatment, the animals were sensitised with sheep erythrocytes administrated intravenously (caudal vein), at a rate of 0.5 ml per animal. The sheep erythrocytes were suspended at a concentration of 2×10^9 cells/ml in a sodium chloride solution (isotonic).
On the ninth day, i.e. 4 days after sensitisation, the spleen was removed after euthanasia by exsanguination (section of the abdominal aorta) of the animals, which were previously anaesthetised with pentobarbital (Sanofi, 60 mg/kg).
Half of the spleen was broken up (ground), giving, after preparation, a suspension of splenocytes in PBS buffer (Dulbecco Gibco Ref: 3018199) containing 10^7 cells per millilitre.
The haemolytic plaque (PFC) reaction was induced by addition of 50 microlitres of the splenocyte suspension obtained for each animal in 200 microlitres of a suspension of PBS comprising complement and sheep erythrocytes.
The mixture, placed between the slide (holder) and cover slip creating an evaluation chamber (40 μl) delimited by paraffin, was incubated for one hour at 37° C.
At the end of the incubation, the slides were immediately placed flat at 4° C. The evaluation was performed as soon as possible. The number of haemolytic plaques (PFC) was determined by a standardised method of slide evaluation using an optical microscope. A haemolytic plaque (PFC) is a plaque where only one trapped splenocyte can be observed. The number of haemolytic plaques (PFC) is calculated for 10^6 spleen cells.

| Structure (SMILES) | % inhibition (1st experiment, 30 mg/Kg oral, treatment for 5 days before sensitisation) [%] | % inhibition (1st experiment, 100 mg/Kg oral, treatment for 5 days before sensitisation) | % inhibition (1st experiment, 300 mg/Kg oral, treatment for 5 days before sensitisation) | % inhibition (2nd experiment, 0.01 mg/Kg oral, treatment for 7 days (5 days before sensitisation and 2 days after)) [%] | % inhibition (2nd experiment, 0.1 mg/Kg oral, treatment for 7 days (5 days before sensitisation and 2 days after)) | % inhibition (2nd experiment, 1 mg/Kg oral, treatment for 7 days (5 days before sensitisation and 2 days after)) | dose giving a statistically significant decrease in the number of haemolytic plaques (PFC) (oral, decrease in the humoral immune response) [mg/kg] | effect in relation to the treatment phase (treatment before sensitisation only vs. also after sensitisation) | % inhibition (1st experiment, cyclophosphamide 20 mg/Kg subcutaneously, only on the fifth day) | % inhibition (2nd experiment, cyclophosphamide 20 mg/Kg subcutaneously, only on the fifth day) |
| --- | --- | --- | --- | --- | --- | --- | --- | --- | --- | --- |
| O=C(CC(Cc1ccccc1)C(=O)O)c1ccc(F)cc1 (single isomer, unassigned; (-)) [Molecule A, (−) 4-(4-Fluorophenyl)-4-oxo-2-phenylmethylbutanoic acid] | 3 | 19** % | 29** % | 0 | 43 * % | 42** % | ≥ 0.1 | stronger effect after the sensitisation phase | – | – |
| O=P1(N(CCCl)CCCl)NCCCO1 (stereo not shown) [Cyclophosphamide, cyclophosphamide, reference compound] | – | – | – | – | – | – | – | – | 85** % | 54** % |

Source: patent US20100273872A1, “USE OF 4-OXOBUTANOIC ACID DERIVATIVES IN THE TREATMENT OF PATHOLOGIES ASSOCIATED WITH IMMUNOLOGICAL DISORDERS” (priority 2007, published 2010)
